The subject of the assay is HIV YU2. As to the kind of experiment: Protease inhibitor sensitivity: J53tat cells infected with HIV YU2 with drug, supernatant used to infect J53BL cells. The class given is cell-based, HIV-1. To be noted: for Number of colony formed in the presence of protease Inhibitor Indinavir: YU2, J53tat then J53BL. Here is the method:
The J53tat cell line is used to produce virus and thereby enable viral testing of drug candidates that affect various stages of the virus life cycle. Thus, viral drug resistance mutations in early stage targets such as reverse transcriptase (RT), integrase (IN) and env; and late stage targets such as protease and Gag are analyzed by the methods of the present invention. The J53tat cells are infected with HIV YU2 (MOI of either 0.2 or 0.04), and protease inhibitor (indinavir) is added to the cultures at various concentrations. Forty hours after infection the culture supernatant is collected and used to infect the J53BL cell line in the presence of the same drug concentrations.

As to `CC(C)(C)NC(=O)[C@@H]1CN(Cc2cccnc2)CCN1C[C@@H](O)C[C@@H](Cc1ccccc1)C(=O)N[C@H]1c2ccccc2C[C@H]1O` [indinavir], the “Number of colony formed in the presence of protease Inhibitor Indinavir” value (“Number … of protease Inhibitor Indinavir” below) (0.04 M.O.I, 0.008 MM indinavir) stood at 105; the “Number … of protease Inhibitor Indinavir” value (0.04 M.O.I, 0.2 MM indinavir) is on record as 2; the “Number … of protease Inhibitor Indinavir” value (0.04 M.O.I, 1.0 MM indinavir) came out at 0; the “Number … of protease Inhibitor Indinavir” value (0.04 M.O.I) is given as 2; the “Number … of protease Inhibitor Indinavir” value (0.2 M.O.I, 0.008 MM indinavir) was more than 1000; the “Number … of protease Inhibitor Indinavir” value (0.2 M.O.I, 0.2 MM indinavir) came out at 99. Further, the “Number … of protease Inhibitor Indinavir” value runs as follows: (0.2 M.O.I, 1.0 MM indinavir) 0; (0.2 M.O.I) 343. Moreover, where the note is “increasing concentrations causing greater inhibition”, the “Sensitivity of YU2 to protease inhibitor” value is listed as “sensitive”.

The record behind these values is patent publication US6797462B1, “Cell-based assay for immunodeficiency virus infectivity and sensitivity” (UAB Research Foundation, priority 1998, dated 2004).
